# Tests used:
# itch = conditions: cited from earlier work
# [1] = system: Compound 48/80-induced scratching; experiment: Anti-pruritic activity, mouse scratch model (Compound 48/80-induced scratching); type: in vivo, mouse (male Swiss albino); conditions: s.c.; for Mean % Inhibition of Scratching: Compound 48/80 challenge, 30 min; for antagonism of Compound 48/80-induced scratching (in words): dose-related
# Method: Testing was performed in a mouse scratch model under blind conditions.
# Groups of 8-10 male Swiss albino mice (Hilltop Lab Animals, Inc., Scottsdale, Pa.), weighing […], were used in the testing. They were housed under controlled temperature of 23-25° C. Food and water were freely available. Before the experiments, the mice were weighed, put into individual boxes and allowed to acclimate for 30 min.
# Vehicle used to dissolve the test compounds: 20% w/w cremophor EL.
# […] of the vehicle (3-5 doses, n-8-10) was injected s.c. into the back of the neck of mice 20 min. before challenging them with 100 μl of Compound 48/80 (2 mg/ml; 50 μg) injected s.c. into the back of the neck.
# To each mouse of a group of 8-10 mice previously subjected to the standard challenge various doses of the compounds, to be tested for anti-pruritic activity, were administered s.c. into the back of the neck.
# For each group of 8-10 mice, the mean values for scratching were normalized to relative % antagonism of scratching and then plotted vs. dose of test compounds. Interval estimates of mean A50 were determined by nonlinear regression analysis (Kalcida Graph) and mean % inhibition of scratching was calculated.
# [2] = reported; antidiarrheal use; cited from earlier work
# [3] = system: warm water induced tail withdrawal reflex / castor oil diarrhea; conditions: po
# Excerpt: Peripheral selectivity is defined by the ratio of the ED50 in the tail-withdrawal assay over the ED50 in the anti-diarrheal assay.
# Measure of Centrally-Mediated Opiod Analgesia by the Tail-Withdrawal Assay (Janssen, P. A. J.; Niemegeers, C. J. E.; Dony, J. G. H., The Inhibitory effect of Fentanyl and other morphine-like analgesics on the warm water induced tail withdrawal reflex in rats. Arzneimittel-Forschung 1963, 13, 502-507.)
# Young female Wistar rats (170-210 g body weight) are used only once. […] Around 8:30 AM the "normal" reaction time of each rat is determined by immersing the lower 5 cm portion of the tail in a cup freshly filled with water from a large constant temperature (55° C.) bath until the typical tail withdrawal response is observed. […] The reaction time is measured in 0.5 second units with a stopwatch. […] Periodically thereafter (i.e., 1/4, 1/2, 1, 2, 3, 4, 5 and 6 hours after dosage) the reaction time is again measured by trained technicians unaware of the nature of the compounds. Results of these studies are expressed as ED50 concentration values (mg/kg), calculated as the dose producing a tail withdrawal latency equal to half the difference between the maximum latency (≤15 seconds) and the baseline latency (6 to 8 seconds). […]
molecule,measurement,setting,value
CN1CC[C@]23c4c5ccc(O)c4O[C@H]2[C@@H](O)C=C[C@H]3[C@H]1C5 [morphine],"generalized itching, incidence",itch; i.v.,about 1 % of patients
"O=C(N1CCCCC1)C(CCN1CCC(O)(c2ccccc2)CC1)(c1ccccc1)c1ccccc1 [Compound 1, 1-[4-(4-Hydroxy-4-phenyl-1-piperidino)-2,2-diphenylbutyryl]piperidine]",Mean % Inhibition of Scratching,[1]; 2.5 mg/kg,32%
same,Mean % Inhibition of Scratching,[1]; 5.0 mg/kg,65%
same,Mean % Inhibition of Scratching,[1]; 10.0 mg/kg,83%
same,antagonism of Compound 48/80-induced scratching (in words),[1],antagonized Compound 48/80-induced scratching in a dose-related manner
"CN(C)C(=O)C(CCN1CCC(O)(c2ccc(Cl)cc2)CC1)(c1ccccc1)c1ccccc1.Cl [Example 2, 4-(p-Chlorophenyl)-4-hydroxy-N,N-dimethyl-α,α-diphenylpiperidine-1-butyramide hydrochloride]",CNS effects (in words),[2],completely free of the undesirable CNS effects
"CN(C)C(=O)C(CCN1CCC(O)(c2ccc(Br)cc2)CC1)(c1ccccc1)c1ccccc1 [Compound 3, 4-(p-Bromophenyl)-4-hydroxy-N,N-dimethyl-α,α-diphenyl-1-piperidinebutyramide]",antagonism of Compound 48/80-induced scratching (in words),[1],antagonized Compound 48/80-induced scratching in a dose-related manner
cyclosporin A,inhibition of itch in atopic dermatitis (in words),itch; atopic dermatitis,"itch is not inhibited by antihistamines, but by cyclosporin A"
NCCc1c[nH]cn1 [histamine],induction of itch (in words),itch; humans / application to skin,produces itch but not pain
"CN(C)C(=O)C(CCN1CCC(O)(c2ccc(Cl)cc2)CC1)(c1ccccc1)c1ccccc1 [Compound 6, 4-(p-Chlorophenyl)-4-hydroxy-N,N-dimethyl-α,α-diphenyl-1-piperidinebutyramide]",antagonism of Compound 48/80-induced scratching (in words),[1],antagonized Compound 48/80-induced scratching in a dose-related manner
same,CNS effects (in words),[2],devoid of CNS effects
O=C(N1CCCC1)C(CCN1CCC(O)(c2ccc(Cl)c(Cl)c2)CC1)(c1ccccc1)c1ccccc1 [Compound 4],Peripheral Selectivity (ED50tw /ED50 Castor Oil),[3],> 640

# Reference: patent US5798093A (priority 1997, dated 1998)
